Values quoted from earlier work in PubChem BioAssay AID1259409 (Chemical Carcinogenesis Research Information System (CCRIS), 2018).

Tested on: rodent chemically induced tumor inhibition, incidence and multiplicity
Assay: CCRIS tumor inhibitor studies
Conditions: Dose [Inhibitor]: 0, Route [Inhibitor]: ORAL

In the case of `COc1ccc(-c2cc(=O)c3c(O)cc(O[C@@H]4O[C@H](CO[C@@H]5O[C@@H](C)[C@H](O)[C@@H](O)[C@H]5O)[C@@H](O)[C@H](O)[C@H]4O)cc3o2)cc1O`, the “tumour outcome (control, treated, inhibition, significance)” value (Carcinogen: 4-NITROQUINOLINE-1-OXIDE, 56-57-5, 1000 PPM IN DIET FOR 10 WK BEGINNING 1 WK PRIOR TO CARCINOGEN TREATMENT (STUDY DURATION: 32 WK), Species: RAT, Strain/Sex: F344/MALE, Target Tissue: Type of Lesion: TONGUE: PAPILLOMA, Dose [Carcinogen]: 20 PPM IN DRINKING WATER FOR 8 WK, Promoter: NONE USED) is listed as 8/17 (47%), 1/19 (5%), 89%, p<0.01, the “tumour outcome (control, treated, inhibition, significance)” value (Carcinogen: 4-NITROQUINOLINE-1-OXIDE, 56-57-5, 1000 PPM IN DIET FOR 10 WK BEGINNING 1 WK PRIOR TO CARCINOGEN TREATMENT (STUDY DURATION: 32 WK), Species: RAT, Strain/Sex: R344/MALE, Target Tissue: Type of Lesion: TONGUE: SQUAMOUS CELL CARCINOMA, Dose [Carcinogen]: 20 PPM IN DRINKING WATER FOR 8 WK, Promoter: NONE USED) is listed as 11/17 (65%), 4/19 (21%), 68%, p<0.01 and the “tumour outcome (control, treated, inhibition, significance)” value (Carcinogen: 4-NITROQUINOLINE-1-OXIDE, 56-57-5, 1000 PPM IN DIET FOR 22 WK BEGINNING 1 WK POST CARCINOGEN TREATMENT (STUDY DURATION: 32 WK), Species: RAT, Strain/Sex: F344/MALE, Target Tissue: Type of Lesion: TONGUE: PAPILLOMA, Dose [Carcinogen]: 20 PPM IN DRINKING WATER FOR 8 WK, Promoter: NONE USED) is listed as 8/17 (47%), 2/20 (10%), 79%, p<0.05. The “tumour outcome (control, treated, inhibition, significance)” value (Carcinogen: 4-NITROQUINOLINE-1-OXIDE, 56-57-5, 1000 PPM IN DIET FOR 22 WK BEGINNING 1 WK POST CARCINOGEN TREATMENT (STUDY DURATION: 32 WK), Species: RAT, Strain/Sex: F344/MALE, Target Tissue: Type of Lesion: TONGUE: SQUAMOUS CELL CARCINOMA, Dose [Carcinogen]: 20 PPM IN DRINKING WATER FOR 8 WK, Promoter: NONE USED) was 11/17 (65%), 3/20 (15%), 77%, p<0.05, the “tumour outcome (control, treated, inhibition, significance)” value (Carcinogen: AZOXYMETHANE, 25843-45-2, 0.1% IN DIET FOR 4 WK BEGINNING 1 WK PRIOR TO CARCINOGEN TREATMENT (STUDY DURATION: 32 WK), Species: RAT, Strain/Sex: F344/MALE, Target Tissue: Type of Lesion: COLON: ADENOCARCINOMA, Dose [Carcinogen]: 15 MG/KG BW 1/WK FOR 3 WK, Promoter: NONE) was 70%, 22%, 69%, p<0.005 and the “tumour outcome (control, treated, inhibition, significance)” value (Carcinogen: AZOXYMETHANE, 25843-45-2, 0.1% IN DIET FOR 28 WK BEGINNING 1 WK POST LAST CARCINOGEN DOSE (STUDY DURATION: 32 WK), Species: RAT, Strain/Sex: F344/MALE, Target Tissue: Type of Lesion: COLON: ADENOCARCINOMA, Dose [Carcinogen]: 15 MG/KG BW 1/WK FOR 3 WK, Promoter: NONE) was 70%, 5%, 93%, p<0.001. For the same compound, the “tumour outcome (control, treated, inhibition, significance)” value (Carcinogen: AZOXYMETHANE, 25843-45-2, 1000 PPM IN DIET FOR 4 WK BEGINNING 1 WK PRIOR TO CARCINOGEN TREATMENT (STUDY DURATION: 32 WK), Species: RAT, Strain/Sex: F344/MALE, Target Tissue: Type of Lesion: LARGE INTESTINE: TUMOR, Dose [Carcinogen]: 15 MG/KG BW 1/WK FOR 3 WK, Promoter: NONE USED) was 12/17 (71%), 5/19 (26%), 63%, p<0.01, the “tumour outcome (control, treated, inhibition, significance)” value (Carcinogen: AZOXYMETHANE, 25843-45-2, 1000 PPM IN DIET FOR 4 WK BEGINNING 1 WK PRIOR TO CARCINOGEN TREATMENT (STUDY DURATION: 32 WK), Species: RAT, Strain/Sex: F344/MALE, Target Tissue: Type of Lesion: SMALL INTESTINE: TUMOR, Dose [Carcinogen]: 15 MG/KG BW 1/WK FOR 3 WK, Promoter: NONE USED) was 5/17 (29%), 0/19 (0%), 100%, p<0.05 and the “tumour outcome (control, treated, inhibition, significance)” value (Carcinogen: AZOXYMETHANE, 25843-45-2, 1000 PPM IN DIET FOR 28 WK BEGINNING 1 WK POST CARCINOGEN TREATMENT (STUDY DURATION: 32 WK), Species: RAT, Strain/Sex: F344/MALE, Target Tissue: Type of Lesion: LARGE INTESTINE: TUMOR, Dose [Carcinogen]: 15 MG/KG BW 1/WK FOR 3 WK, Promoter: NONE USED) was 12/17 (71%), 3/20 (15%), 79%, p<0.001. For the same compound, the “tumour outcome (control, treated, inhibition, significance)” value (Carcinogen: AZOXYMETHANE, 25843-45-2, 1000 PPM IN DIET FOR 28 WK BEGINNING 1 WK POST CARCINOGEN TREATMENT (STUDY DURATION: 32 WK), Species: RAT, Strain/Sex: F344/MALE, Target Tissue: Type of Lesion: SMALL INTESTINE: TUMOR, Dose [Carcinogen]: 15 MG/KG BW 1/WK FOR 3 WK, Promoter: NONE USED) was 5/17 (29%), 2/20 (10%), 66%, not significant, the “tumour outcome (control, treated, inhibition, significance)” value (Carcinogen: N-BUTYL-N-(4-HYDROXYBUTYL)NITROSAMINE, 3817-11-6, 1000 PPM IN DIET FOR 8 WK BEGINNING 1 WK PRIOR TO CARCINOGEN TREATMENT (STUDY DURATION: 32 WK), Species: MOUSE, Strain/Sex: ICR/MALE, Target Tissue: Type of Lesion: URINARY BLADDER: PAPILLOMA, Dose [Carcinogen]: 500 PPM IN DRINKING WATER FOR 6 WK, Promoter: NONE USED) was 5/26 (19%), 4/24 (17%), 11%, not significant and the “tumour outcome (control, treated, inhibition, significance)” value (Carcinogen: N-BUTYL-N-(4-HYDROXYBUTYL)NITROSAMINE, 3817-11-6, 1000 PPM IN DIET FOR 8 WK BEGINNING 1 WK PRIOR TO CARCINOGEN TREATMENT (STUDY DURATION: 32 WK), Species: MOUSE, Strain/Sex: ICR/MALE, Target Tissue: Type of Lesion: URINARY BLADDER: TRANSITIONAL CELL CARCINOMA, Dose [Carcinogen]: 500 PPM IN DRINKING WATER FOR 6 WK, Promoter: NONE USED) was 16/26 (62%), 5/24 (21%), 66%, p<0.005. The “tumour outcome (control, treated, inhibition, significance)” value (Carcinogen: N-BUTYL-N-(4-HYDROXYBUTYL)NITROSAMINE, 3817-11-6, 1000 PPM IN DIET FOR 24 WK BEGINNING 1 WK POST CARCINOGEN TREATMENT (STUDY DURATION: 32 WK), Species: MOUSE, Strain/Sex: ICR/MALE, Target Tissue: Type of Lesion: URINARY BLADDER: PAPILLOMA, Dose [Carcinogen]: 500 PPM IN DRINKING WATER FOR 6 WK, Promoter: NONE USED) was 5/26 (19%), 3/24 (13%), 32%, not significant, the “tumour outcome (control, treated, inhibition, significance)” value (Carcinogen: N-BUTYL-N-(4-HYDROXYBUTYL)NITROSAMINE, 3817-11-6, 1000 PPM IN DIET FOR 24 WK BEGINNING 1 WK POST CARCINOGEN TREATMENT (STUDY DURATION: 32 WK), Species: MOUSE, Strain/Sex: ICR/MALE, Target Tissue: Type of Lesion: URINARY BLADDER: TRANSITIONAL CELL CARCINOMA, Dose [Carcinogen]: 500 PPM IN DRINKING WATER FOR 6 WK, Promoter: NONE USED) was 16/26 (62%), 2/24 (8%), 87%, p<0.0001 and the “tumour outcome (control, treated, inhibition, significance)” value (Carcinogen: N-METHYL-N-AMYLNITROSAMINE, 13256-07-0, 1000 PPM IN DIET FOR 7 WK BEGINNING 1 WK POST CARCINOGEN TREATMENT (STUDY DURATION: 20 WK), Species: RAT, Strain/Sex: WISTAR/MALE, Target Tissue: Type of Lesion: ESOPHAGUS: SQUAMOUS CELL CARCINOMA, Dose [Carcinogen]: 12.5 MG/KG BW 1/WK FOR 12 WK, Promoter: NONE USED) was 75%, 39%, 48%, not significant. For the same compound, the “tumour outcome (control, treated, inhibition, significance)” value (Carcinogen: N-METHYL-N-AMYLNITROSAMINE, 13256-07-0, 1000 PPM IN DIET FOR 7 WK BEGINNING 1 WK POST CARCINOGEN TREATMENT (STUDY DURATION: 20 WK), Species: RAT, Strain/Sex: WISTAR/MALE, Target Tissue: Type of Lesion: ESOPHAGUS: SQUAMOUS CELL PAPILLOMA, Dose [Carcinogen]: 12.5 MG/KG BW 1/WK FOR 12 WK, Promoter: NONE USED) was 100%, 100%, 0%, not significant, the “tumour outcome (control, treated, inhibition, significance)” value (Carcinogen: N-METHYL-N-AMYLNITROSAMINE, 13256-07-0, 1000 PPM IN DIET FOR 7 WK BEGINNING 1 WK POST CARCINOGEN TREATMENT (STUDY DURATION: 20 WK), Species: RAT, Strain/Sex: WISTAR/MALE, Target Tissue: Type of Lesion: TONGUE: SQUAMOUS CELL CARCINOMA, Dose [Carcinogen]: 12.5 MG/KG BW 1/WK FOR 12 WK, Promoter: NONE USED) was 17%, 0%, 100%, not calculated and the “tumour outcome (control, treated, inhibition, significance)” value (Carcinogen: N-METHYL-N-AMYLNITROSAMINE, 13256-07-0, 1000 PPM IN DIET FOR 7 WK BEGINNING 1 WK POST CARCINOGEN TREATMENT (STUDY DURATION: 20 WK), Species: RAT, Strain/Sex: WISTAR/MALE, Target Tissue: Type of Lesion: TONGUE: SQUAMOUS CELL PAPILLOMA, Dose [Carcinogen]: 12.5 MG/KG BW 1/WK FOR 12 WK, Promoter: NONE USED) was 33%, 11%, 67%, not calculated. For the same compound, the “tumour outcome (control, treated, inhibition, significance)” value (Carcinogen: N-METHYL-N-AMYLNITROSAMINE, 13256-07-0, 1000 PPM IN DIET FOR 13 WK BEGINNING 1 WK PRIOR TO CARCINOGEN TREATMENT (STUDY DURATION: 20 WK), Species: RAT, Strain/Sex: WISTAR/MALE, Target Tissue: Type of Lesion: ESOPHAGUS: SQUAMOUS CELL CARCINOMA, Dose [Carcinogen]: 12.5 MG/KG BW 1/WK FOR 12 WK, Promoter: NONE USED) was 75%, 29%, 61%, p<0.05, the “tumour outcome (control, treated, inhibition, significance)” value (Carcinogen: N-METHYL-N-AMYLNITROSAMINE, 13256-07-0, 1000 PPM IN DIET FOR 13 WK BEGINNING 1 WK PRIOR TO CARCINOGEN TREATMENT (STUDY DURATION: 20 WK), Species: RAT, Strain/Sex: WISTAR/MALE, Target Tissue: Type of Lesion: ESOPHAGUS: SQUAMOUS CELL PAPILLOMA, Dose [Carcinogen]: 12.5 MG/KG BW 1/WK FOR 12 WK, Promoter: NONE USED) was 100%, 100%, 0%, not significant and the “tumour outcome (control, treated, inhibition, significance)” value (Carcinogen: N-METHYL-N-AMYLNITROSAMINE, 13256-07-0, 1000 PPM IN DIET FOR 13 WK BEGINNING 1 WK PRIOR TO CARCINOGEN TREATMENT (STUDY DURATION: 20 WK), Species: RAT, Strain/Sex: WISTAR/MALE, Target Tissue: Type of Lesion: TONGUE: SQUAMOUS CELL CARCINOMA, Dose [Carcinogen]: 12.5 MG/KG BW 1/WK FOR 12 WK, Promoter: NONE USED) was 17%, 0%, 100%, not calculated. For the same compound, the “tumour outcome (control, treated, inhibition, significance)” value (Carcinogen: N-METHYL-N-AMYLNITROSAMINE, 13256-07-0, 1000 PPM IN DIET FOR 13 WK BEGINNING 1 WK PRIOR TO CARCINOGEN TREATMENT (STUDY DURATION: 20 WK), Species: RAT, Strain/Sex: WISTAR/MALE, Target Tissue: Type of Lesion: TONGUE: SQUAMOUS CELL PAPILLOMA, Dose [Carcinogen]: 12.5 MG/KG BW 1/WK FOR 12 WK, Promoter: NONE USED) was 33%, 6%, 82%, not calculated.
